The text below walks through data of patent US8470889B2 (TRT Pharma Inc., priority 2008, dated 2013).

In data set [1] the test system is 22Rv1 cells. Description: MTT cell growth inhibition, 22Rv1. Conditions: MTT.
Protocol: (§1) MDA PCa 2b was seeded at the same density in medium BRFF-HPC1 (Athena Enzyme Systems, Baltimore, Md., USA) supplemented with 20% FBS. After overnight incubation, the medium was changed to a fresh medium containing different concentrations of test compounds diluted from stock DMSO solution. The final concentration of DMSO is 0.5%. After 72 h of incubation with test compounds, 20 μL of 3-(4,5-dimethyl thiazol-2-yl)-2,5-diphenyltetrazolium bromide (MTT) solution (5 mg/mL in PBS) were added to each well and incubated further for 2 h. Next, the supernatant was aspirated and the MTT formazan formed by metabolically viable cells was dissolved in 100 μL of isopropanol. The plates were mixed for 30 min, and the absorbance was measured at 600 nm on a plate reader (FLUOstar OPTIMA, BMG LabTech). All samples were in triplicate. The IC50 values were determined from dose-response curves by nonlinear regression using PRISM v5.00 (GraphPad Software Inc, La Jolla, Calif., USA).
(§2) The in vitro cytotoxicity of 1-20 were evaluated by MTT assays in a panel of prostate cancer cell lines, including LNCaP, MDA PCa 2b, 22Rv1, C4-2B and PC-3.
Data set [2] concerns PC-3 cells. The experiment in a line: MTT cell growth inhibition, PC-3. Conditions: for Cellular IC50 (μM) PC3: Table 8; for Cellular IC50 (μM) PC-3: Table 2, 72 h, max tested 50 μM (β-ionone 150 μM).
Protocol: as §1, §2
For data set [3], the system named is LNCaP cells. The experiment in a line: MTT cell growth inhibition, LNCaP.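 Note: MTT formazan absorbance at 600 nm read after 72 h of compound exposure, IC50 fitted by nonlinear regression of dose-response curves, samples run in triplicate.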
For data set [4], the system named is C4-2B cells. The experiment in a line: MTT cell growth inhibition, C4-2B.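 Note: cells treated with a dilution series for 72 h, then MTT added and absorbance read at 600 nm, IC50 fitted from dose-response curves by nonlinear regression.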
Protocol: as §1, §2
Where [5] appears, read: read-out: IC50 (μM) 22Rv1, Table 1, 72 h.
[6] abbreviates: read-out: IC50 (μM) PC-3, Table 1, 72 h, maximum tested concentration 50 μM.
Where [7] appears, read: read-out: IC50 (μM) LNCaP, Table 1, 72 h.
Setting [8] is: read-out: IC50 (μM) C4-2B, Table 1, 72 h.
[9] abbreviates: read-out: Cellular IC50 (μM) 22Rv1, Table 8.
[10] abbreviates: read-out: Cellular IC50 (μM) PC3, Table 8.
Setting [11] is: read-out: Cellular IC50 (μM) LNCaP, Table 8.
[12] abbreviates: read-out: Cellular IC50 (μM) C4-2B, Table 8.
Where [13] appears, read: read-out: Cellular IC50 (μM) 22Rv1, Table 9.
[14] abbreviates: read-out: Cellular IC50 (μM) PC-3, Table 9.
Where [15] appears, read: read-out: Cellular IC50 (μM) LNCaP, Table 9.
Where [16] appears, read: read-out: Cellular IC50 (μM) C4-2B, Table 9.
[17] abbreviates: read-out: Cellular IC50 (μM) 22Rv1, Table 2, 72 h.
Where [18] appears, read: read-out: Cellular IC50 (μM) PC-3, Table 2, 72 h, max tested 50 μM (β-ionone 150 μM).
[19] abbreviates: read-out: Cellular IC50 (μM) LNCaP, Table 2, 72 h.
The mark [20] stands for this setting: read-out: Cellular IC50 (μM) C4-2B, Table 2, 72 h.

Like-named read-outs stand apart in the source and are kept apart here.

Regarding `CC1=C(/C=C/C(=O)/C=C(O)/C=C/c2ccc(O)cc2)C(C)(C)CCC1` [Compound 5], the IC50 was 12.6 µM in data set [1] (setting [5]), 50.6 µM in data set [2] (setting [6]), 18.6 µM in data set [3] (setting [7]) and 5.7 µM in data set [4] (setting [8]).
On to `CC1=C(/C=C/C(=O)/C=C/c2ccccc2C)C(C)(C)CCC1O` (centres unmarked) [Compound B64], for which the IC50 in data set [1] (setting [9]) turned out to be 4.6 µM; in data set [2] (setting [10]), 7.6 µM; in data set [3] (setting [11]), 2.5 µM; in data set [4] (setting [12]), 2.7 µM.
In the case of `CC1(C)CCC(O)C=C1/C=C/C(=O)/C=C/c1ccnc2ccccc12` (centres unmarked) [Compound B96], the IC50 in data set [1] (setting [13]) came out at 1.2 µM; in data set [2] (setting [14]), 2.2 µM; in data set [3] (setting [15]), 1.5 µM; in data set [4] (setting [16]), 1.5 µM.
For the compound `COc1ccc(/C=C/C(=O)/C=C/C2=C(C)C(O)CCC2(C)C)cc1` (centres unmarked) [Compound B53], the IC50 in data set [1] (setting [9]) came to 20.3 µM; in data set [3] (setting [11]), 13.3 µM; in data set [4] (setting [12]), 10.3 µM. For the same compound, the “Cellular IC50 (μM) PC3” value in data set [2] is reported as “Int”.
As for `COc1cc(/C=C/C(=O)/C=C/C2=C(C)C(O)CCC2(C)C)c(OCc2ccccc2)cc1OC` (centres unmarked) [Compound B75], the IC50 in data set [1] (setting [9]) was determined as 19.2 µM; in data set [2] (setting [10]), 25.4 µM; in data set [3] (setting [11]) it was 16.7 µM; in data set [4] (setting [12]), 23.3 µM.
Regarding `CC1(C)CCC(O)C=C1/C=C/C(=O)/C=C/c1c[nH]c2ccc(Cl)cc12` (centres unmarked) [Compound B84], the IC50 in data set [1] (setting [13]) worked out at 14.3 µM; in data set [2] (setting [14]) it was 24.5 µM; in data set [3] (setting [15]), 17.8 µM; in data set [4] (setting [16]), 18.2 µM.
With `COc1ccc(/C=C/C(O)=C/C(=O)/C=C/C2=C(C)CCCC2(C)C)cc1O` [Compound 2], the values for the IC50 in data set [2] (setting [6]), in data set [3] (setting [7]) and in data set [4] (setting [8]) were 38.3 µM, 25.9 µM and 23.1 µM, respectively.
Take `COc1cc(/C=C/C(O)=C/C(=O)/C=C/C2=C(C)CCCC2(C)C)ccc1O` [Compound 1]: the IC50 in data set [1] (setting [5]) amounted to 10.6 µM; in data set [2] (setting [6]), 15.8 µM; in data set [3] (setting [7]), 20.6 µM; in data set [4] (setting [8]), 44.3 µM.
As for `CC1=C(/C=C/C(=O)/C=C/c2ccc(N3CCOCC3)cc2)C(C)(C)CCC1O` (centres unmarked) [Compound B60], the IC50 in data set [2] (setting [10]) was 16 µM; in data set [3] (setting [11]) it was 3.9 µM.
On to `COc1ccc(/C=C/C(=O)/C(=C/c2ccc(OC)nc2)C(=O)/C=C/C2=C(C)CCCC2(C)C)cn1` [Compound 17], for which the IC50 in data set [1] (setting [17]) came to 9.9 µM; in data set [2] (setting [18]), 31 µM; in data set [3] (setting [19]), 15.7 µM; in data set [4] (setting [20]), 12.2 µM.
With `CC1(C)CCC(O)C=C1/C=C/C(=O)/C=C/c1ccc2c(c1)OC(F)(F)O2` (centres unmarked) [Compound B77], the IC50 in data set [2] (setting [14]) was 3.2 µM; in data set [3] (setting [15]), 1.1 µM.
For `COc1ccc(/C=C/C(O)=C/C(=O)/C=C/C2=C(C)CCCC2(C)C)cc1OC` [Compound 3], the IC50 was 47.9 µM in data set [2] (setting [6]), 26.4 µM in data set [3] (setting [7]) and 30.6 µM in data set [4] (setting [8]).
As for `COc1cc(C=CC(=O)C(=Cc2cc(OC)c(OC)c(OC)c2)C(=O)C=CC2=C(C)CCCC2(C)C)cc(OC)c1OC` [Compound 16], the IC50 in data set [1] (setting [17]) came to 1.5 µM; in data set [2] (setting [18]), 5.9 µM; in data set [3] (setting [19]), 3.4 µM; in data set [4] (setting [20]), 2.2 µM.
`COc1ccc(/C=C/C(O)=C/C(=O)/C=C/C2=C(C)CCCC2(C)C)cn1` [Compound 8]: the IC50 in data set [2] (setting [6]) was 52.2 µM; in data set [3] (setting [7]), 25.1 µM.
For the compound `CC1(C)CCC(O)C=C1/C=C/C(=O)/C=C/c1ccc2[nH]ccc2c1` (centres unmarked) [Compound B89], the IC50 came out at 2.3 µM in data set [1] (setting [13]), 3.1 µM in data set [2] (setting [14]), 1.5 µM in data set [3] (setting [15]) and 1.6 µM in data set [4] (setting [16]).
The matching figures for `CC1(C)CCC(O)C=C1/C=C/C(=O)/C=C/c1ccc2ccccc2n1` (centres unmarked) [Compound B94]: 2.7 µM, 5.5 µM, 2 µM and 1.5 µM.
On to `COc1cc(/C=C/C(O)=C/C(=O)/C=C/C2=C(C)CCCC2(C)C)cc(OC)c1OC` [Compound 7], for which the IC50 in data set [1] (setting [5]) was 17.1 µM; in data set [2] (setting [6]) it was greater than 50 µM; in data set [3] (setting [7]), 21.4 µM; in data set [4] (setting [8]), 11.9 µM.
Turning to `CC1(C)CCC(O)C=C1/C=C/C(=O)/C=C/c1c(-c2ccccc2)[nH]c2ccccc12` (centres unmarked) [Compound B87], the IC50 in data set [1] (setting [13]) worked out at 12.6 µM; in data set [2] (setting [14]), 13.7 µM; in data set [3] (setting [15]), 3.2 µM; in data set [4] (setting [16]) it was 2.2 µM.
Regarding `CC1=C(/C=C/C(=O)/C=C/c2ccc(N(CCO)CCO)cc2)C(C)(C)CCC1O` (centres unmarked) [Compound B62], the IC50 in data set [1] (setting [9]) came out at 4.3 µM; in data set [2] (setting [10]), 6.9 µM; in data set [3] (setting [11]), 1.4 µM; in data set [4] (setting [12]) it was 1.7 µM.
With `CCOc1ccc(/C=C/C(=O)/C=C/C2=C(C)C(O)CCC2(C)C)cc1OCC` (centres unmarked) [Compound B71], the IC50 in data set [1] (setting [9]) came to 8.6 µM; in data set [2] (setting [10]) it was 36.1 µM; in data set [3] (setting [11]) it was 5.5 µM; in data set [4] (setting [12]), 10.5 µM.
As for `CCn1c2ccccc2c2cc(/C=C(\C(=O)/C=C/C3=C(C)CCCC3(C)C)C(=O)/C=C/c3ccc4c(c3)c3ccccc3n4CC)ccc21` [Compound 18], the IC50 in data set [1] (setting [17]) amounted to 31.6 µM; in data set [3] (setting [19]), 11.8 µM; in data set [4] (setting [20]), 28.5 µM. Moreover, the “Cellular IC50 (μM) PC-3” value in data set [2] is given as “Inactive^c”.
For `CC1=C(/C=C/C(=O)/C=C/c2ccc(OC(F)(F)F)cc2)C(C)(C)CCC1O` (centres unmarked) [Compound B54], the results for the IC50 in data set [2] (setting [10]) and in data set [3] (setting [11]) were 6.6 µM and 1.3 µM, respectively.
Consider `CC1=C(/C=C/C(=O)/C=C/c2ccc(N(C)C)cc2)C(C)(C)CCC1O` (centres unmarked) [Compound B63], for which the IC50 in data set [1] (setting [9]) was 42 µM; in data set [2] (setting [10]) it was 13 µM; in data set [3] (setting [11]) it was 8.8 µM.
In the case of `COc1ccc(/C=C/C(=O)/C=C/C2=C(C)C(O)CCC2(C)C)cc1OC` (centres unmarked) [Compound B70], the IC50 in data set [1] (setting [9]) was determined as 8.2 µM; in data set [2] (setting [10]) it was 6.8 µM; in data set [3] (setting [11]), 2.1 µM.
Turning to `CC1=C(/C=C/C(=O)/C=C/c2cccc(OC(F)(F)F)c2)C(C)(C)CCC1O` (centres unmarked) [Compound B46], the values for the IC50 in data set [2] (setting [10]) and in data set [3] (setting [11]) were 1.7 µM and 1.4 µM, respectively.
For the compound `Cn1c(/C=C/C(=O)/C=C/C2=CC(O)CCC2(C)C)cc2ccccc21` (centres unmarked) [Compound B80], the figures for the IC50 in data set [1] (setting [13]), in data set [2] (setting [14]) and in data set [3] (setting [15]) were 9.5 µM, 19.8 µM and 7 µM, respectively.
Consider `CC(=O)/C=C/C1=C(C)CCCC1(C)C` [β-Ionone, reference compound], for which the “Cellular IC50 (μM) PC-3” value in data set [2] is “Inactive^e”. Besides, the “Cytotoxicity, IC50 (μM) PC-3” value in data set [2] (Table 5, β-ionone max tested 150 μM) is “Inactive^b”. Besides, the IC50 in data set [3] (setting [19]) was found to be 151 µM; in data set [3] (read-out: Cytotoxicity, IC50 (μM) LNCaP, Table 5) it was 151 µM.
For the compound `CC1=C(/C=C/C(=O)/C=C/c2cccc(OC(F)(F)C(F)F)c2)C(C)(C)CCC1O` (centres unmarked) [Compound B47], the IC50 in data set [1] (setting [9]) was found to be 1.8 µM; in data set [2] (setting [10]), 4.6 µM; in data set [3] (setting [11]), 1.6 µM.
For the compound `CC1=C(/C=C/C(=O)/C=C/c2ccc(O)cc2)C(C)(C)CCC1O` (centres unmarked) [Compound B52], the IC50 in data set [1] (setting [9]) is 10.6 µM; in data set [3] (setting [11]), 8.9 µM. Besides, the “Cellular IC50 (μM) PC3” value in data set [2] is given as “Int”.
Turning to `CCn1c2ccccc2c2cc(/C=C/C(=O)/C=C/C3=CC(O)CCC3(C)C)ccc21` (centres unmarked) [Compound B91], the IC50 in data set [1] (setting [13]) was 4.7 µM; in data set [2] (setting [14]), 8.6 µM; in data set [3] (setting [15]), 3.8 µM.
For `CC1=C(/C=C/C(=O)/C=C/c2cccc(Oc3ccccc3)c2)C(C)(C)CCC1O` (centres unmarked) [Compound B48], the IC50 in data set [2] (setting [10]) was determined as 2 µM; in data set [3] (setting [11]), 2.4 µM.
Regarding `CCOc1ccc(/C=C/C(O)=C/C(=O)/C=C/C2=C(C)CCCC2(C)C)cc1OCC` [Compound 4], the IC50 in data set [2] (setting [6]) worked out at 53.3 µM; in data set [3] (setting [7]), 30 µM; in data set [4] (setting [8]), 22.6 µM.
